Source: US20260130395A1, “Water Dispersible Botanical Compositions” (Aquila Black Limited, priority 2021, published 2026)

Experiments:
[1] = Stability of cannabinoid compounds and Vitamin E components in Beverage 1 (AB White) by LCMSMS; type: physicochemical
[2] = Stability of cannabinoid entourage and Vitamin E components of the powder concentrate by LCMSMS; type: physicochemical; conditions: powder stored at 21-25° C.
Description: At each time period, 0.05 g of powder was dissolved in 10 ml-15 of ethanol, diluted to fall within the analytical range, and injected into the LCMSMS for analysis.

Q: Which results are given for CC(=O)Oc1c(C)c(C)c2c(c1C)CCC(C)(CCC[C@H](C)CCC[C@H](C)CCCC(C)C)O2 (stereo partly drawn) [α-Tocopheryl acetate]?
A: Stability of Vitamin Es in AB White ([1]; stored at 8° C., 0 days): 12.3 µg/mL; Stability of Vitamin Es in AB White ([1]; stored at 8° C., 1 days): 12.04 µg/mL; Stability of Vitamin Es in AB White ([1]; stored at 8° C., 2 days): 12.47 µg/mL; Stability of Vitamin Es in AB White ([1]; stored at 8° C., 3 days): 11.99 µg/mL; Stability of Vitamin Es in AB White ([1]; stored at 8° C., 5 days): 11.61 µg/mL; Stability of Vitamin Es in AB White ([1]; stored at 8° C., 8 days): 12.48 µg/mL; Stability of Vitamin Es in AB White ([1]; stored at 8° C., 9 days): 11.88 µg/mL; Stability of Vitamin Es in AB White ([1]; stored at 8° C., 10 days): 12.13 µg/mL; Stability of Vitamin Es in AB White ([1]; stored at 8° C., 11 days): 11.83 µg/mL; Stability of Vitamin Es in AB White ([1]; stored at 8° C., 12 days): 12.31 µg/mL; Stability of Vitamin Es in AB White ([1]; stored at 8° C., 15 days): 12.42 µg/mL; Stability of Vitamin Es in AB White ([1]; stored at 8° C., 16 days): 11.35 µg/mL; Stability of Vitamin Es in AB White ([1]; stored at 8° C., 17 days): 11.49 µg/mL; Stability of Vitamin Es in AB White ([1]; stored at 8° C., 18 days): 11.83 µg/mL; Stability of Vitamin Es in AB White ([1]; stored at 8° C., 19 days): 12.41 µg/mL; Stability of Vitamin Es in AB White ([1]; stored at 8° C., 22 days): 11.27 µg/mL; Stability of Vitamin Es in AB White ([1]; stored at 8° C., 23 days): 11.93 µg/mL; Stability of Vitamin Es in AB White ([1]; stored at 8° C., 24 days): 12.02 µg/mL; Stability of Vitamin Es in AB White ([1]; stored at 8° C., 25 days): 12.24 µg/mL; Stability of Vitamin Es in AB White ([1]; stored at 8° C., 26 days): 12.03 µg/mL; Stability of Vitamin Es in AB White ([1]; stored at 8° C., 29 days): 11.40 µg/mL; Stability of Vitamin Es in AB White ([1]; stored at 8° C., 30 days): 12.07 µg/mL; Stability of Vitamin Es in AB White ([1]; stored at 8° C., 60 days): 12.05 µg/mL; Stability of Vitamin Es in AB White ([1]; stored at 8° C., 90 days): 11.13 µg/mL; Stability of Vitamin Es in AB White ([1]; stored at 8° C., 120 days): 11.80 µg/mL; Stability of Vitamin Es in AB White ([1]; stored at 8° C., 150 days): 11.89 µg/mL; Stability of Vitamin Es in AB White ([1]; stored at 8° C., 180 days): 11.48 µg/mL; Stability of Vitamin Es in AB White ([1]; stored at 8° C., 210 days): 11.21 µg/mL; Stability of Vitamin Es in AB White ([1]; stored at 8° C., 240 days): 11.06 µg/mL; Stability of Vitamin Es in AB White ([1]; stored at 8° C., 270 days): 11.21 µg/mL; Stability of Vitamin Es in AB White ([1]; stored at 8° C., 300 days): 11.37 µg/mL; Stability of Vitamin Es in AB White ([1]; stored at 8° C., 330 days): 11.28 µg/mL; Stability of Vitamin Es in AB White ([1]; stored at 8° C., 360 days): 11.12 µg/mL; Stability of Vitamin Es in AB White ([1]; stored at 8° C., 390 days): 11.00 µg/mL; Stability of Vitamin Es in AB White ([1]; stored at 8° C., 420 days): 11.06 µg/mL; Stability of Vitamin Es in AB White ([1]; stored at 8° C., 450 days): 10.89 µg/mL; Stability of Vitamin Es in AB White ([1]; stored at 8° C., 480 days): 10.76 µg/mL; Stability of Vitamin Es in AB White ([1]; stored at 8° C., 510 days): 10.76 µg/mL; Stability of Vitamin Es in AB White ([1]; stored at 8° C., 540 days): 10.49 µg/mL; Stability of Vitamin Es in AB White ([1]; stored at 8° C., 570 days): 10.42 µg/mL; Stability of Vitamin Es in AB White ([1]; stored at 21-25° C., 0 days): 12.3 µg/mL; Stability of Vitamin Es in AB White ([1]; stored at 21-25° C., 1 days): 12.2 µg/mL; Stability of Vitamin Es in AB White ([1]; stored at 21-25° C., 2 days): 12.3 µg/mL; Stability of Vitamin Es in AB White ([1]; stored at 21-25° C., 3 days): 11.8 µg/mL; Stability of Vitamin Es in AB White ([1]; stored at 21-25° C., 5 days): 12.0 µg/mL; Stability of Vitamin Es in AB White ([1]; stored at 21-25° C., 8 days): 12.4 µg/mL; Stability of Vitamin Es in AB White ([1]; stored at 21-25° C., 9 days): 12.2 µg/mL; Stability of Vitamin Es in AB White ([1]; stored at 21-25° C., 10 days): 11.8 µg/mL; Stability of Vitamin Es in AB White ([1]; stored at 21-25° C., 11 days): 11.7 µg/mL; Stability of Vitamin Es in AB White ([1]; stored at 21-25° C., 12 days): 11.6 µg/mL; Stability of Vitamin Es in AB White ([1]; stored at 21-25° C., 15 days): 11.4 µg/mL; Stability of Vitamin Es in AB White ([1]; stored at 21-25° C., 16 days): 12.3 µg/mL; Stability of Vitamin Es in AB White ([1]; stored at 21-25° C., 17 days): 11.2 µg/mL; Stability of Vitamin Es in AB White ([1]; stored at 21-25° C., 18 days): 11.9 µg/mL; Stability of Vitamin Es in AB White ([1]; stored at 21-25° C., 19 days): 11.4 µg/mL; Stability of Vitamin Es in AB White ([1]; stored at 21-25° C., 22 days): 11.3 µg/mL; Stability of Vitamin Es in AB White ([1]; stored at 21-25° C., 23 days): 11.9 µg/mL; Stability of Vitamin Es in AB White ([1]; stored at 21-25° C., 24 days): 11.8 µg/mL; Stability of Vitamin Es in AB White ([1]; stored at 21-25° C., 25 days): 11.3 µg/mL; Stability of Vitamin Es in AB White ([1]; stored at 21-25° C., 26 days): 11.6 µg/mL; Stability of Vitamin Es in AB White ([1]; stored at 21-25° C., 29 days): 12.1 µg/mL; Stability of Vitamin Es in AB White ([1]; stored at 21-25° C., 30 days): 12.1 µg/mL; Stability of Vitamin Es in AB White ([1]; stored at 21-25° C., 60 days): 12.1 µg/mL; Stability of Vitamin Es in AB White ([1]; stored at 21-25° C., 90 days): 12.0 µg/mL; Stability of Vitamin Es in AB White ([1]; stored at 21-25° C., 120 days): 11.4 µg/mL; Stability of Vitamin Es in AB White ([1]; stored at 21-25° C., 150 days): 11.9 µg/mL; Stability of Vitamin Es in AB White ([1]; stored at 21-25° C., 180 days): 11.2 µg/mL; Stability of Vitamin Es in AB White ([1]; stored at 21-25° C., 210 days): 11.1 µg/mL; Stability of Vitamin Es in AB White ([1]; stored at 21-25° C., 240 days): 10.8 µg/mL; Stability of Vitamin Es in AB White ([1]; stored at 21-25° C., 270 days): 11.0 µg/mL; Stability of Vitamin Es in AB White ([1]; stored at 21-25° C., 300 days): 11.2 µg/mL; Stability of Vitamin Es in AB White ([1]; stored at 21-25° C., 330 days): 11.3 µg/mL; Stability of Vitamin Es in AB White ([1]; stored at 21-25° C., 360 days): 10.7 µg/mL; Stability of Vitamin Es in AB White ([1]; stored at 21-25° C., 390 days): 10.8 µg/mL; Stability of Vitamin Es in AB White ([1]; stored at 21-25° C., 420 days): 10.9 µg/mL; Stability of Vitamin Es in AB White ([1]; stored at 21-25° C., 450 days): 10.6 µg/mL; Stability of Vitamin Es in AB White ([1]; stored at 21-25° C., 480 days): 10.3 µg/mL; Stability of Vitamin Es in AB White ([1]; stored at 21-25° C., 510 days): 10.4 µg/mL; Stability of Vitamin Es in AB White ([1]; stored at 21-25° C., 540 days): 10.4 µg/mL; Stability of Vitamin Es in AB White ([1]; stored at 21-25° C., 570 days): 10.2 µg/mL; Stability of Vitamin Es in Powder Concentrate ([2]; 0 days): 2.15 mg/g powder; Stability of Vitamin Es in Powder Concentrate ([2]; 1 days): 2.19 mg/g powder; Stability of Vitamin Es in Powder Concentrate ([2]; 2 days): 2.11 mg/g powder; Stability of Vitamin Es in Powder Concentrate ([2]; 3 days): 2.18 mg/g powder; Stability of Vitamin Es in Powder Concentrate ([2]; 5 days): 2.24 mg/g powder; Stability of Vitamin Es in Powder Concentrate ([2]; 8 days): 2.23 mg/g powder; Stability of Vitamin Es in Powder Concentrate ([2]; 9 days): 2.09 mg/g powder; Stability of Vitamin Es in Powder Concentrate ([2]; 10 days): 2.09 mg/g powder; Stability of Vitamin Es in Powder Concentrate ([2]; 11 days): 2.20 mg/g powder; Stability of Vitamin Es in Powder Concentrate ([2]; 12 days): 2.17 mg/g powder; Stability of Vitamin Es in Powder Concentrate ([2]; 15 days): 2.24 mg/g powder; Stability of Vitamin Es in Powder Concentrate ([2]; 16 days): 2.15 mg/g powder; Stability of Vitamin Es in Powder Concentrate ([2]; 17 days): 2.13 mg/g powder; Stability of Vitamin Es in Powder Concentrate ([2]; 18 days): 2.10 mg/g powder; Stability of Vitamin Es in Powder Concentrate ([2]; 19 days): 2.21 mg/g powder; Stability of Vitamin Es in Powder Concentrate ([2]; 22 days): 2.11 mg/g powder; Stability of Vitamin Es in Powder Concentrate ([2]; 23 days): 2.16 mg/g powder; Stability of Vitamin Es in Powder Concentrate ([2]; 24 days): 2.09 mg/g powder; Stability of Vitamin Es in Powder Concentrate ([2]; 25 days): 2.24 mg/g powder; Stability of Vitamin Es in Powder Concentrate ([2]; 26 days): 2.10 mg/g powder; Stability of Vitamin Es in Powder Concentrate ([2]; 29 days): 2.21 mg/g powder; Stability of Vitamin Es in Powder Concentrate ([2]; 30 days): 2.08 mg/g powder; Stability of Vitamin Es in Powder Concentrate ([2]; 60 days): 2.15 mg/g powder; Stability of Vitamin Es in Powder Concentrate ([2]; 90 days): 2.24 mg/g powder; Stability of Vitamin Es in Powder Concentrate ([2]; 120 days): 2.17 mg/g powder; Stability of Vitamin Es in Powder Concentrate ([2]; 150 days): 2.18 mg/g powder; Stability of Vitamin Es in Powder Concentrate ([2]; 180 days): 2.20 mg/g powder; Stability of Vitamin Es in Powder Concentrate ([2]; 210 days): 2.15 mg/g powder; Stability of Vitamin Es in Powder Concentrate ([2]; 240 days): 2.23 mg/g powder; Stability of Vitamin Es in Powder Concentrate ([2]; 270 days): 2.13 mg/g powder; Stability of Vitamin Es in Powder Concentrate ([2]; 300 days): 2.09 mg/g powder; Stability of Vitamin Es in Powder Concentrate ([2]; 330 days): 2.15 mg/g powder; Stability of Vitamin Es in Powder Concentrate ([2]; 360 days): 2.12 mg/g powder; Stability of Vitamin Es in Powder Concentrate ([2]; 390 days): 2.21 mg/g powder; Stability of Vitamin Es in Powder Concentrate ([2]; 420 days): 2.21 mg/g powder; Stability of Vitamin Es in Powder Concentrate ([2]; 450 days): 2.07 mg/g powder; Stability of Vitamin Es in Powder Concentrate ([2]; 480 days): 2.10 mg/g powder; Stability of Vitamin Es in Powder Concentrate ([2]; 510 days): 2.15 mg/g powder; Stability of Vitamin Es in Powder Concentrate ([2]; 540 days): 2.21 mg/g powder; Stability of Vitamin Es in Powder Concentrate ([2]; 570 days): 2.13 mg/g powder
